According to ChEMBL document CHEMBL4732077, “Potent and orally active purine-based fetal hemoglobin inducers for treating β-thalassemia and sickle cell disease” (Eur J Med Chem, 2021):

What was measured:
[1] = Cytotoxicity against human erythrocytes assessed as cell viability at 10 uM after 3 days alamar blue assay relative to control; type: cell-based, Erythrocyte; settings: time 3 day, read-out: Activity
[2] = Induction of gamma-globin gene expression in human erythrocytes at 10 uM after 3 days by RT-PCR analysis relative to control; type: functional, Erythrocyte; settings: time 3 day
[3] = Cytotoxicity against human erythrocytes assessed as cell viability at 1.25 uM after 3 days alamar blue assay relative to control; type: cell-based, Erythrocyte; settings: time 3 day, read-out: Activity
[4] = Induction of gamma-globin gene expression in human erythrocytes at 1.25 uM after 3 days by RT-PCR analysis relative to control; type: functional, Erythrocyte; settings: time 3 day
[5] = Cytotoxicity against human erythrocytes assessed as cell viability at 0.4 uM after 3 days alamar blue assay relative to control; type: cell-based, Erythrocyte; settings: time 3 day, read-out: Activity
[6] = Induction of gamma-globin gene expression in human erythrocytes at 0.4 uM after 3 days by RT-PCR analysis relative to control; type: functional, Erythrocyte; settings: time 3 day
[7] = Cytotoxicity against human erythrocytes assessed as cell viability at 15 uM after 3 days alamar blue assay relative to control; type: cell-based, Erythrocyte; settings: time 3 day, read-out: Activity
[8] = Induction of gamma-globin gene expression in human erythrocytes at 15 uM after 3 days by RT-PCR analysis relative to control; type: functional, Erythrocyte; settings: time 3 day
[9] = Cytotoxicity against human erythrocytes assessed as cell viability at 5 uM after 3 days alamar blue assay relative to control; type: cell-based, Erythrocyte; settings: time 3 day, read-out: Activity
[10] = Induction of gamma-globin gene expression in human erythrocytes at 5 uM after 3 days by RT-PCR analysis relative to control; type: functional, Erythrocyte; settings: time 3 day
[11] = Induction of gamma-globin gene expression in human erythrocytes at 0.625 uM after 3 days by RT-PCR analysis relative to control; type: functional, Erythrocyte; settings: time 3 day
[12] = Cytotoxicity against human erythrocytes assessed as cell viability at 0.625 uM after 3 days alamar blue assay relative to control; type: cell-based, Erythrocyte; settings: time 3 day, read-out: Activity
[13] = Induction of gamma-globin gene expression in human erythrocytes at 0.1 uM after 3 days by RT-PCR analysis relative to control; type: functional, Erythrocyte; settings: time 3 day
[14] = Clearance in Sprague-Dawley rat at 2 mg/kg, iv measured upto 24 hrs by LC-MS/MS analysis; type: ADME, organism-based; settings: in vivo
[15] = Volume of distribution at steady state in Sprague-Dawley rat at 2 mg/kg, iv measured upto 24 hrs by LC-MS/MS analysis; type: ADME, organism-based; settings: in vivo, read-out: Vdss
[16] = Cytotoxicity against human erythrocytes assessed as cell viability at 0.1 uM after 3 days alamar blue assay relative to control; type: cell-based, Erythrocyte; settings: time 3 day, read-out: Activity
[17] = AUC (0 to infinity) in Sprague-Dawley rat at 2 mg/kg, iv measured upto 24 hrs by LC-MS/MS analysis; type: ADME, organism-based; set-up: route intravenous, dose 2 mg/kg, time <=24; settings: in vivo
[18] = Half life in Sprague-Dawley rat at 2 mg/kg, iv measured upto 24 hrs by LC-MS/MS analysis; type: ADME, organism-based; settings: in vivo
[19] = Water solubility of compound at pH 7.4 after 24 hrs by LC/MS analysis; type: physicochemical; settings: buffer, pH 7.4, 24 h
[20] = Cytotoxicity against human erythrocytes assessed as cell viability after 3 days alamar blue assay; type: cell-based, Erythrocyte; settings: time 3 day
[21] = Induction of gamma-globin gene expression in human erythrocytes at 250 uM after 3 days by RT-PCR analysis relative to control; type: functional, Erythrocyte; settings: time 3 day
[22] = Induction of gamma-globin gene expression in human erythrocytes at 0.83 uM after 3 days by RT-PCR analysis relative to control; type: functional, Erythrocyte; settings: time 3 day
[23] = Cytotoxicity against human erythrocytes assessed as cell viability at 0.83 uM after 3 days alamar blue assay relative to control; type: cell-based, Erythrocyte; settings: time 3 day, read-out: Activity

CCN1CCN(c2nc(Nc3cccc(NC(=O)N4CCN(c5ccc(F)cc5)CC4)c3)c3ncn(CC)c3n2)CC1
viability at 72 h, 10 µM [1]: 8% | fold change (FC) [2]: 2.2

CCn1cnc2c(Nc3cccc(NC(=O)C#Cc4ccc(C)cc4)c3)nc(N3CCN(CCO)CC3)nc21
viability at 72 h, 1.25 µM [3]: 58% | fold change (FC) [4]: 4.6

CCn1cnc2c(Nc3cccc(NC(=O)C#Cc4ccc(C)cc4)c3)nc(OCCN3CCOCC3)nc21
viability at 72 h, 0.4 µM [5]: 78% | fold change (FC) [6]: 2.6

CCn1cnc2c(Nc3cccc(NC(=O)C#Cc4ccc(C)cc4)c3)ncnc21
viability at 72 h, 15 µM [7]: 75% | fold change (FC) [8]: 4.1

CCn1cnc2c(Nc3cccc(NC(=O)C#Cc4ccc(C)cc4)c3)nc(N3CCN(CCF)CC3)nc21.Cl.Cl
viability at 72 h, 5 µM [9]: 50% | fold change (FC) [10]: 4.6

CCN1CCN(c2nc(Nc3cccc(NC(=O)[C@@H]4C[C@H]4c4ccccc4)c3)c3ncn(CC)c3n2)CC1
viability at 72 h, 1.25 µM [3]: 77% | fold change (FC) [4]: 1.1

CCn1cnc2c(Nc3cccc(NC(=O)C#Cc4ccc(C)cc4)c3)nc(N3CCC(N(C)C)CC3)nc21.Cl.Cl
fold change (FC) [11]: 1.7 | viability at 72 h, 0.625 µM [12]: 75%

Cc1ccc(C#CC(=O)Nc2cccc(Nc3nc(N[C@H]4CC[C@H](O)CC4)nc4scnc34)c2)cc1
viability at 72 h, 10 µM [1]: 19% | fold change (FC) [2]: 0.87

CCN1CCN(c2nc(Nc3cccc(C(=O)Nc4ccc(-c5ccccc5)cc4)c3)c3ncn(CC)c3n2)CC1
fold change (FC) [11]: 0.84 | viability at 72 h, 0.625 µM [12]: 105%

CCn1cnc2c(Nc3cccc(NC(=O)C#Cc4ccc(C)cc4)c3)nc(N[C@H]3CC[C@H](O)CC3)nc21
fold change (FC) [13]: 1.4 | clearance [14]: 60.9 mL/min/kg | Vd [15]: 3.8 L/kg | viability at 72 h, 0.1 µM [16]: 61% | AUC(0-inf) [17]: 610 ng·h/mL | half-life [18]: 10.2 h | solubility [19]: < 0.01 µg/mL

CCCC(=O)[O-].[Na+] [SODIUM BUTYRATE]
CC50 at 72 h [20]: 222 µM | fold change (FC) [21]: 1.3

Cc1ccc(C#CC(=O)Nc2cccc(Nc3ncnc4oc(-c5ccccc5)nc34)c2)cc1
viability at 72 h, 10 µM [1]: 103% | fold change (FC) [2]: 1.2

Cc1ccc(C#CC(=O)Nc2cccc(Nc3nc(N[C@H]4CC[C@H](O)CC4)nc4ccccc34)c2)cc1
viability at 72 h, 1.25 µM [3]: 46% | fold change (FC) [4]: 1.8

CCN1CCN(c2nc(Nc3cccc(NC(=O)/C=C/c4ccccc4)c3)c3ncn(CC)c3n2)CC1
viability at 72 h, 1.25 µM [3]: 128% | fold change (FC) [4]: 2.3

CCn1cnc2c(Nc3cccc(NC(=O)C#Cc4ccc(C)cc4)c3)nc(N3CCC(N(C)C)C3)nc21 (configuration not stated)
viability at 72 h, 1.25 µM [3]: 53% | fold change (FC) [4]: 1.5

CCN1CCN(c2nc(Nc3cccc(C(=O)N[C@@H]4C[C@H]4c4ccccc4)c3)c3ncn(CC)c3n2)CC1
fold change (FC) [22]: 1.3 | viability at 72 h, 0.83 µM [23]: 71%
